Experimental data: ChEMBL document CHEMBL1201862, “PubChem BioAssay data set” (2004)
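These data come from cells grown in 96-well plates and exposed to compound for 48 hours at five concentrations. The concentration for 50% growth inhibition is given as GI50.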 Active and inactive are the calls of the source. Rule as the data show it: active = GI50 up to about 1.1 µM and inactive = higher.

Columns and labels:
Assay in all cases: inhibition of tumour cell growth, NCI panel, 48 h
786-0 = system: 786-0
A498 = system: A498
A549 = system: A549
ACHN = system: ACHN
BT-549 = system: BT-549
CAKI-1 = system: CAKI-1
CCRF-CEM = system: CCRF-CEM
COLO 205 = system: COLO 205
DU-145 = system: DU-145
EKVX = system: EKVX
HCC 2998 = system: HCC 2998
HCT-116 = system: HCT-116
HCT-15 = system: HCT-15
HOP-62 = system: HOP-62
HOP-92 = system: HOP-92
HT-29 = system: HT-29
Hs-578T = system: Hs-578T
IGROV-1 = system: IGROV-1
KM12 = system: KM12
LOX IMVI = system: LOX IMVI
M14 = system: M14
MCF7 = system: MCF7
MDA-MB-231 = system: MDA-MB-231
MDA-MB-435 = system: MDA-MB-435
MDA-N = system: MDA-N
MOLT-4 = system: MOLT-4
Malme-3M = system: Malme-3M
NCI-H226 = system: NCI-H226
NCI-H23 = system: NCI-H23
NCI-H460 = system: NCI-H460
NCI-H522 = system: NCI-H522
NCI/ADR-RES = system: NCI/ADR-RES
OVCAR-3 = system: OVCAR-3
OVCAR-4 = system: OVCAR-4
OVCAR-5 = system: OVCAR-5
OVCAR-8 = system: OVCAR-8
PC-3 = system: PC-3
RPMI-8226 = system: RPMI-8226
SF-268 = system: SF-268
SF-295 = system: SF-295
SF-539 = system: SF-539
SK-MEL-2 = system: SK-MEL-2
SK-MEL-5 = system: SK-MEL-5
SK-OV-3 = system: SK-OV-3
SN12C = system: SN12C
SNB-19 = system: SNB-19
SNB-75 = system: SNB-75
SR = system: SR
SW-620 = system: SW-620
T47D = system: T47D
U-251 = system: U-251
UACC-257 = system: UACC-257
UACC-62 = system: UACC-62
UO-31 = system: UO-31

What does the source list for `COc1cc(OC)cc(N(C)Cc2cnc3nc(N)nc(N)c3c2C)c1`?
GI50 (786-0): 427 nM (active); GI50 (A498): 18700 nM (inactive); GI50 (A549): 421 nM (active); GI50 (ACHN): 746 nM (active); GI50 (BT-549): > 25700 nM (inactive); GI50 (CAKI-1): 2040 nM (inactive); GI50 (CCRF-CEM): 2470 nM (inactive); GI50 (COLO 205): 12600 nM (inactive); GI50 (DU-145): 4710 nM (inactive); GI50 (EKVX): > 47300 nM (inactive); GI50 (HCC 2998): 3520 nM (inactive); GI50 (HCT-116): 358 nM (active); GI50 (HCT-15): 1270 nM; GI50 (HOP-62): 995 nM (active); GI50 (HOP-92): 13300 nM (inactive); GI50 (HT-29): 2650 nM (inactive); GI50 (Hs-578T): > 68500 nM (inactive); GI50 (IGROV-1): 838 nM (active); GI50 (KM12): 3850 nM (inactive); GI50 (LOX IMVI): 1160 nM (inactive); GI50 (M14): 652 nM (active); GI50 (MCF7): 920 nM (active); GI50 (MDA-MB-231): 21300 nM (inactive); GI50 (MDA-MB-435): 759 nM (active); GI50 (MDA-N): 631 nM (active); GI50 (MOLT-4): 741 nM (active); GI50 (Malme-3M): 817 nM (active); GI50 (NCI-H226): > 41100 nM (inactive); GI50 (NCI-H23): 1250 nM (inactive); GI50 (NCI-H460): 474 nM (active); GI50 (NCI-H522): 2210 nM (inactive); GI50 (NCI/ADR-RES): 5650 nM (inactive); GI50 (OVCAR-3): 9660 nM (inactive); GI50 (OVCAR-4): 20100 nM (inactive); GI50 (OVCAR-5): 757 nM (active); GI50 (OVCAR-8): 741 nM (active); GI50 (PC-3): 565 nM (active); GI50 (RPMI-8226): > 22000 nM (inactive); GI50 (SF-268): 745 nM (active); GI50 (SF-295): 535 nM (active); GI50 (SF-539): 385 nM (active); GI50 (SK-MEL-2): > 51500 nM (inactive); GI50 (SK-MEL-5): 615 nM (active); GI50 (SK-OV-3): 13600 nM (inactive); GI50 (SN12C): 929 nM (active); GI50 (SNB-19): 12900 nM (inactive); GI50 (SNB-75): 57.1 nM (active); GI50 (SR): 541 nM (active); GI50 (SW-620): 585 nM (active); GI50 (T47D): 38300 nM (inactive); GI50 (U-251): 543 nM (active); GI50 (UACC-257): 1560 nM (inactive); GI50 (UACC-62): 719 nM (active); GI50 (UO-31): 5520 nM (inactive)
